Drawing on patent US20250186541A1, “DLL3 TARGETING PEPTIDES AND CONSTRUCTS THEREOF” (MARIANA ONCOLOGY INC., priority 2023, published 2025), this text covers Kd for 7 compounds.

pKd: −log10 of the molar value. Bridge positions count the residues as written; N and C are the ends. Square brackets hold non-standard residues; d marks the D form. Peptide text beside a SMILES is read from it.

The target in the assay is T1, human DLL3 (Homo sapiens, UniProt Q9NYJ7).
T1 construct: biotin (biotinylated)
T1 sequence (Q9NYJ7 27-618): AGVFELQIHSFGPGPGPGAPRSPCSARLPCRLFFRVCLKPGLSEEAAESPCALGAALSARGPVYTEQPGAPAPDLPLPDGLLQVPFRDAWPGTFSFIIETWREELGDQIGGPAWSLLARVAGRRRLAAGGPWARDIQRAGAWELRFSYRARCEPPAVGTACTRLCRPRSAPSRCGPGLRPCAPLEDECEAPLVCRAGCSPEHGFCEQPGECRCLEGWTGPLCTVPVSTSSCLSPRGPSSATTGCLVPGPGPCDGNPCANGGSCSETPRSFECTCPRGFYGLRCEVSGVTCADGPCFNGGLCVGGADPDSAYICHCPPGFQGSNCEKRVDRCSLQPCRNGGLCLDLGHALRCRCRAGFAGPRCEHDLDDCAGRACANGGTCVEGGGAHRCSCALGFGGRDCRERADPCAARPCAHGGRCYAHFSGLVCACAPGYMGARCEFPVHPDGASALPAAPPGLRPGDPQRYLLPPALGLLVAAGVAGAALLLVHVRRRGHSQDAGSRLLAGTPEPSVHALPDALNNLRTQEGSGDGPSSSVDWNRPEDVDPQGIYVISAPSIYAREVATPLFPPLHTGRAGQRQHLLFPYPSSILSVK
Nature of the assay: Affinity determination by Surface Plasmon Resonance (SPR), Biacore, 1:1 binding model. To be noted: biotinylated human DLL3 on streptavidin chip, 25° C.; NB = nonbinding. The procedure: Example 3. Binding Affinity of Targeting Moieties Polypeptides to DLL3 Affinity Determination by Surface Plasmon Resonance (SPR)
SPR studies were performed on the compounds disclosed herein using the following protocol. […] Biotinylated target ligand human DLL3 was immobilized on a streptavidin sensor chip. A reference surface was set up for nonspecific binding and refractive index changes. For analysis of the kinetics of interactions, varying concentrations of samples were injected at a flow rate of 100 μL/min using running buffer containing 20 mM phosphate buffer with 2.7 mM KCl, 137 mM NaCl, 0.05% Surfactant P20 and 2% DMSO. Sensorgram curves were fitted with 1:1 binding model, and affinity and kinetic parameters were obtained using Biacore Insight evaluation 4.0. software.
(In SPR one partner is held on a chip, and binding of the other changes the refractive index at the surface.)
In general, pKd refers to the Kd on a negative log10 scale, so that one unit is a factor of ten. A high value points to a small Kd. For the compound `CSCC[C@H](NC(C)=O)C(=O)N[C@@H](CO)C(=O)N[C@@H](CC(=O)O)C(=O)N[C@H]1CSSC[C@@H](C(=O)N[C@H](C)C(=O)N[C@@H](Cc2ccccc2)C(=O)N[C@@H](CC(=O)O)C(N)=O)NC(=O)[C@H](CC(N)=O)NC(=O)[C@H](Cc2c[nH]c3ccccc23)NC(=O)[C@H](CCC(N)=O)NC(=O)[C@H](CC(C)C)NC(=O)[C@H](Cc2c[nH]c3ccccc23)NC1=O` [compound 16, Ac-M-S-D-C(3)-W-L-Q-W-N-C(3)-(D-Ala)-F-D-CONH2] (Ac-MSDCWLQWNC[dA]FD-NH2; disulfide 4-10), the pKd was less than 7.00.
The value for `CSCC[C@H](NC(C)=O)C(=O)N[C@@H](CO)C(=O)N[C@@H](CC(=O)O)C(=O)N[C@H]1CSSC[C@@H](C(=O)N2CCC[C@H]2C(=O)N[C@H](C)C(=O)N[C@@H](CC(=O)O)C(N)=O)NC(=O)[C@H](CC(N)=O)NC(=O)[C@H](Cc2c[nH]c3ccccc23)NC(=O)[C@H](CCC(N)=O)NC(=O)[C@H](CC(C)C)NC(=O)[C@H](Cc2c[nH]c3ccccc23)NC1=O` [compound 17, Ac-M-S-D-C(3)-W-L-Q-W-N-C(3)-P-(D-Ala)-D-CONH2] (Ac-MSDCWLQWNCP[dA]D-NH2; disulfide 4-10) was less than 7.00; that for `CSCC[C@H](NC(C)=O)C(=O)N[C@@H](CO)C(=O)N[C@@H](CC(=O)O)C(=O)N[C@H]1CSSC[C@@H](C(=O)N2CCC[C@H]2C(=O)N[C@@H](Cc2ccccc2)C(=O)N[C@H](C)C(N)=O)NC(=O)[C@H](CC(N)=O)NC(=O)[C@H](Cc2c[nH]c3ccccc23)NC(=O)[C@H](CCC(N)=O)NC(=O)[C@H](CC(C)C)NC(=O)[C@H](Cc2c[nH]c3ccccc23)NC1=O` [compound 18, Ac-M-S-D-C(3)-W-L-Q-W-N-C(3)-P-F-(D-Ala)-CONH2] (Ac-MSDCWLQWNCPF[dA]-NH2; disulfide 4-10) was less than 7.00.
The compound `CSCC[C@H](NC(C)=O)C(=O)N[C@@H](C)C(=O)N[C@@H](CC(=O)O)C(=O)N[C@H]1CSSC[C@@H](C(=O)N2CCC[C@H]2C(=O)N[C@@H](Cc2ccccc2)C(=O)N[C@@H](CC(=O)O)C(N)=O)NC(=O)[C@H](CC(N)=O)NC(=O)[C@H](Cc2c[nH]c3ccccc23)NC(=O)[C@H](CCC(N)=O)NC(=O)[C@H](CC(C)C)NC(=O)[C@H](Cc2c[nH]c3ccccc23)NC1=O` [compound 20, Ac-M-(L-Ala)-D-C(3)-W-L-Q-W-N-C(3)-P-F-D-CONH2] (Ac-MADCWLQWNCPFD-NH2; disulfide 4-10) had a pKd of less than 7.00.
Regarding `CSCC[C@H](NC(C)=O)C(=O)N[C@@H](CO)C(=O)N[C@@H](CC(=O)O)C(=O)N[C@H]1CSSC[C@@H](C(=O)N2CCC[C@H]2C(=O)N[C@@H](Cc2ccccc2)C(=O)N[C@@H](CC(=O)O)C(N)=O)NC(=O)[C@H](CC(N)=O)NC(=O)[C@H](Cc2c[nH]c3ccccc23)NC(=O)[C@H](CCC(N)=O)NC(=O)[C@H](CC(C)C)NC(=O)[C@H](C)NC1=O` [compound 22, Ac-M-S-D-C(3)-(L-Ala)-L-Q-W-N-C(3)-P-F-D-CONH2] (Ac-MSDCALQWNCPFD-NH2; disulfide 4-10), the pKd is less than 7.00.
For `CSCC[C@H](NC(C)=O)C(=O)N[C@@H](CO)C(=O)N[C@@H](CC(=O)O)C(=O)N[C@H]1CSSC[C@@H](C(=O)N2CCC[C@H]2C(=O)N[C@@H](Cc2ccccc2)C(=O)N[C@@H](CC(=O)O)C(N)=O)NC(=O)[C@H](CC(N)=O)NC(=O)[C@H](Cc2c[nH]c3ccccc23)NC(=O)[C@H](CCC(N)=O)NC(=O)[C@H](C)NC(=O)[C@H](Cc2c[nH]c3ccccc23)NC1=O` [compound 23, Ac-M-S-D-C(3)-W-(L-Ala)-Q-W-N-C(3)-P-F-D-CONH2] (Ac-MSDCWAQWNCPFD-NH2; disulfide 4-10) the value was less than 7.00; for `CSCC[C@H](NC(C)=O)C(=O)N[C@@H](CO)C(=O)N[C@@H](CC(=O)O)C(=O)N[C@H]1CSSC[C@@H](C(=O)N2CCC[C@H]2C(=O)N[C@@H](Cc2ccccc2)C(=O)N[C@@H](CC(=O)O)C(N)=O)NC(=O)[C@H](C)NC(=O)[C@H](Cc2c[nH]c3ccccc23)NC(=O)[C@H](CCC(N)=O)NC(=O)[C@H](CC(C)C)NC(=O)[C@H](Cc2c[nH]c3ccccc23)NC1=O` [compound 26, Ac-M-S-D-C(3)-W-L-Q-W-(L-Ala)-C(3)-P-F-D-CONH2] (Ac-MSDCWLQWACPFD-NH2; disulfide 4-10), less than 7.00.
